Test results: the kinase profiling compilation of Christmann-Franck et al. (2016)
Values belong to the compound of their own block, whether it stands above or below them.

Legend:
Test in all cases: radiometric filter-binding kinase assay
[1] = system: AKT1 (human), P31749 [S473D]
AURKA (human) = AURKA (human) (UniProt O14965)
BRSK1 (human) = BRSK1 (human) (UniProt Q8TDC3)
BRSK2 (human) = BRSK2 (human) (UniProt Q8IWQ3)
BTK (human) = BTK (human) (UniProt Q06187)
CSK (human) = CSK (human) (UniProt P41240)
CSNK1D (human) = CSNK1D (human) (UniProt P48730)
Chain of CSNK1D (human) (P48730 whole entry, looked up): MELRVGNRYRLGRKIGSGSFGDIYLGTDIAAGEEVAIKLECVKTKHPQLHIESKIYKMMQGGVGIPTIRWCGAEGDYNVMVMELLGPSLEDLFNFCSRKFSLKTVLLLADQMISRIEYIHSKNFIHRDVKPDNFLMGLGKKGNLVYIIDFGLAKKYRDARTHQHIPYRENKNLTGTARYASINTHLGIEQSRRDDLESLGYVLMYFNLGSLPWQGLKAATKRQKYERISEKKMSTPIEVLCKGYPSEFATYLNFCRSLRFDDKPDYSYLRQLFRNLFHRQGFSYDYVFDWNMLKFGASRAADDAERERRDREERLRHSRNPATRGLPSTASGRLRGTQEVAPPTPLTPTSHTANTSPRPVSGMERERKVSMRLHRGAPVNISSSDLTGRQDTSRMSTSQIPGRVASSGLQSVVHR

EEF2K (human) = EEF2K (human) (UniProt O00418)
EPHA4 (human) = EPHA4 (human) (UniProt P54764)
ERBB4 (human) = ERBB4 (human) (UniProt Q15303)
FGFR1 (human) = FGFR1 (human) (UniProt P11362)
Chain of FGFR1 (human) (P11362 whole entry, looked up): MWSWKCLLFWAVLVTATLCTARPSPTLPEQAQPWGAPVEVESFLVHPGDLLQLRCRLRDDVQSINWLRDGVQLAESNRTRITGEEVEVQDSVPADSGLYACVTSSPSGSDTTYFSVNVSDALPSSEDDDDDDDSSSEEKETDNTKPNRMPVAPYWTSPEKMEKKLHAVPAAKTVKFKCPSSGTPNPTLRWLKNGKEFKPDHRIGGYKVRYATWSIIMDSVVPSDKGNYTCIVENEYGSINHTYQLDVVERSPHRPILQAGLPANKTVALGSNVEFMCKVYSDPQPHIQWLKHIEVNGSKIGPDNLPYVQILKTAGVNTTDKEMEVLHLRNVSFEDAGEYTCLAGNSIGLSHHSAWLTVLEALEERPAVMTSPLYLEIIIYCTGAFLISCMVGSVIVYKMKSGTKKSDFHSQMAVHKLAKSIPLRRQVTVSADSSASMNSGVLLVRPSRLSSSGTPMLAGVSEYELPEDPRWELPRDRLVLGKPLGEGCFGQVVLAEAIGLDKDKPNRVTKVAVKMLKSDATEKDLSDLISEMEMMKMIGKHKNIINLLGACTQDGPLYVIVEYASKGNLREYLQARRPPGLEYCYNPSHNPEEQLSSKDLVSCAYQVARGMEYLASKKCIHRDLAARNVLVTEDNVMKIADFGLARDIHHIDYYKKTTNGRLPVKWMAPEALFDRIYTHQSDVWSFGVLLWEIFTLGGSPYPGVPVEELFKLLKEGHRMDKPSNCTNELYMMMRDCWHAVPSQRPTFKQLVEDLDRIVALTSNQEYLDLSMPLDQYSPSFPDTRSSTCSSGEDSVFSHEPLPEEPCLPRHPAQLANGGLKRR

GSK3B (human) = GSK3B (human) (UniProt P49841)
HIPK1 (human) = HIPK1 (human) (UniProt Q86Z02)
HIPK3 (human) = HIPK3 (human) (UniProt Q9H422)
Chain of HIPK3 (human) (Q9H422 whole entry, looked up): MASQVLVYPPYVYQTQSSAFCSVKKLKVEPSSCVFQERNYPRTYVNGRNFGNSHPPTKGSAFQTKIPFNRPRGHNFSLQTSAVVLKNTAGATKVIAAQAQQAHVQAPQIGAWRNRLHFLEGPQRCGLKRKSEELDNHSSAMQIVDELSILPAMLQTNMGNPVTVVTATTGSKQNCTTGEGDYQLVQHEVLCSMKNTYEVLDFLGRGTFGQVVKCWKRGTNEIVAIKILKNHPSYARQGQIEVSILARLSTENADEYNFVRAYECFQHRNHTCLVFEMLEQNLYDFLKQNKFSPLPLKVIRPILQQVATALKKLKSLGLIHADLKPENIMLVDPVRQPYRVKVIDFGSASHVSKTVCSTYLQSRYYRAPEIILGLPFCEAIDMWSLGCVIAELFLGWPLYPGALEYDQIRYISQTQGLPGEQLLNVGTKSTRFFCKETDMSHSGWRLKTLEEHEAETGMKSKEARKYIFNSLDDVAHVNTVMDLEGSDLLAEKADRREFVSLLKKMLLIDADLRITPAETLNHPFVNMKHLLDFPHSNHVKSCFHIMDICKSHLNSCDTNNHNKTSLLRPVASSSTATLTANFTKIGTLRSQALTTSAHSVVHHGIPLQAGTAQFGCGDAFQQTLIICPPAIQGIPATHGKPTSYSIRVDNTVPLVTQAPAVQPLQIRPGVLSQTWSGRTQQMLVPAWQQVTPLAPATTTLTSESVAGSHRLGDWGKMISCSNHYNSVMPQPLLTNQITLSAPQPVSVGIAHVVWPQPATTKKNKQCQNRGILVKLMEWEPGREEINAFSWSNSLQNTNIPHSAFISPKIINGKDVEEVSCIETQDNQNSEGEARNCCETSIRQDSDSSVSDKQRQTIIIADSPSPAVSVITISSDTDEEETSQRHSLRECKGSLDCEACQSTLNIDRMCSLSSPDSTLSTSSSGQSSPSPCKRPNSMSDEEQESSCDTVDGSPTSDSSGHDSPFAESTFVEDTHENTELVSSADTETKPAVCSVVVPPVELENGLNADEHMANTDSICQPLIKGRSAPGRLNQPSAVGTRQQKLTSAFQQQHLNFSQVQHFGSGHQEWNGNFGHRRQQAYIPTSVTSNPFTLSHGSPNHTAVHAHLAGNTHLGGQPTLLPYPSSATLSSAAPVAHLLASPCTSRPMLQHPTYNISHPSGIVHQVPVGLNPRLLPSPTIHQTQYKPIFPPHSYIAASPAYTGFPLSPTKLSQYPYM

IKBKB (human) = IKBKB (human) (UniProt O14920)
MAP2K2 (human) = MAP2K2 (human) (UniProt P36507)
MAP2K6 (human) = MAP2K6 (human) (UniProt P52564)
Chain of MAP2K6 (human) (P52564 whole entry, looked up): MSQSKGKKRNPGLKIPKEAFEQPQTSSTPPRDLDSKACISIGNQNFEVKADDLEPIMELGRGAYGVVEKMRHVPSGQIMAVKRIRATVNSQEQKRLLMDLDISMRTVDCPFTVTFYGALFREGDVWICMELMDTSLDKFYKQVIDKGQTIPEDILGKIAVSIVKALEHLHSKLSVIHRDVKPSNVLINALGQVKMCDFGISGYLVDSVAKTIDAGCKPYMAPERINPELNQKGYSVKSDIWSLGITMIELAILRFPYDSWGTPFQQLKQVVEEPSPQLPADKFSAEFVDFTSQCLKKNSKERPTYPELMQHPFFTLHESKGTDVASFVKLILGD

MAP3K1 (human) = MAP3K1 (human) (UniProt Q13233)
MAP3K5 (human) = MAP3K5 (human) (UniProt Q99683)
MAPK1 (human) = MAPK1 (human) (UniProt P28482)
Chain of MAPK1 (human) (P28482 whole entry, looked up): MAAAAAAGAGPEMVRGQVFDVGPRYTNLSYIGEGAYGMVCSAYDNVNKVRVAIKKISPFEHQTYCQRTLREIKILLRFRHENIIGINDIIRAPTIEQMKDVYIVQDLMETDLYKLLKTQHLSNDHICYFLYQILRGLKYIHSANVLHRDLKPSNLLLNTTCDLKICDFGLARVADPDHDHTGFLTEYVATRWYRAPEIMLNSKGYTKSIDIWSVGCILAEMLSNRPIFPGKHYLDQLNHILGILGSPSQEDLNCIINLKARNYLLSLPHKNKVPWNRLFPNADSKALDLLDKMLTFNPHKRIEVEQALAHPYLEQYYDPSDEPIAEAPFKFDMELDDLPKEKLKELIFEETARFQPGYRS

MAPK15 (human) = MAPK15 (human) (UniProt Q8TD08)
MAPK3 (human) = MAPK3 (human) (UniProt P27361)
MAPK8 (human) = MAPK8 (human) (UniProt P45983)
Chain of MAPK8 (human) (P45983 whole entry, looked up): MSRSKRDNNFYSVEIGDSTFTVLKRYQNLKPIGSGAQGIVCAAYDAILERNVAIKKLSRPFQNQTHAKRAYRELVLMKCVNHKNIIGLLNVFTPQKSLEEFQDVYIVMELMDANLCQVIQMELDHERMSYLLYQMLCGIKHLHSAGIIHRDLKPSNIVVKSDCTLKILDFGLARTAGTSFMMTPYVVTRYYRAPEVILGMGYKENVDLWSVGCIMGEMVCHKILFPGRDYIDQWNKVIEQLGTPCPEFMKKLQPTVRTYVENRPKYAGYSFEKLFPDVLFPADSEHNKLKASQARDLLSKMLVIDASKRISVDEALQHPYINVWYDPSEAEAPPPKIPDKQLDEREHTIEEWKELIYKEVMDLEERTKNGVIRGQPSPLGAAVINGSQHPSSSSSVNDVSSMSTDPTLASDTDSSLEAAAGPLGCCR

MAPK9 (human) = MAPK9 (human) (UniProt P45984)
MAPKAPK3 (human) = MAPKAPK3 (human) (UniProt Q16644)
MKNK2 (human) = MKNK2 (human) (UniProt Q9HBH9)
NEK6 (human) = NEK6 (human) (UniProt Q9HC98)
[2] = system: PAK2 (human), Q13177 [T402E]
PAK7 (human) = PAK7 (human) (UniProt Q9P286)
PLK1 (human) = PLK1 (human) (UniProt P53350)
RPS6KA3 KD1 KD2 (human) = RPS6KA3 KD1 KD2 (human) (UniProt P51812)
RPS6KA5 KD1 KD2 (human) = RPS6KA5 KD1 KD2 (human) (UniProt O75582)
SRPK1 (human) = SRPK1 (human) (UniProt Q96SB4)
[3] = target: STK11 CAB39 STRADA (human) (UniProt Q9Y376+Q7RTN6+Q15831)
TBK1 (human) = TBK1 (human) (UniProt Q9UHD2)

Chain of BRSK1 (human) (Q8TDC3 whole entry, looked up): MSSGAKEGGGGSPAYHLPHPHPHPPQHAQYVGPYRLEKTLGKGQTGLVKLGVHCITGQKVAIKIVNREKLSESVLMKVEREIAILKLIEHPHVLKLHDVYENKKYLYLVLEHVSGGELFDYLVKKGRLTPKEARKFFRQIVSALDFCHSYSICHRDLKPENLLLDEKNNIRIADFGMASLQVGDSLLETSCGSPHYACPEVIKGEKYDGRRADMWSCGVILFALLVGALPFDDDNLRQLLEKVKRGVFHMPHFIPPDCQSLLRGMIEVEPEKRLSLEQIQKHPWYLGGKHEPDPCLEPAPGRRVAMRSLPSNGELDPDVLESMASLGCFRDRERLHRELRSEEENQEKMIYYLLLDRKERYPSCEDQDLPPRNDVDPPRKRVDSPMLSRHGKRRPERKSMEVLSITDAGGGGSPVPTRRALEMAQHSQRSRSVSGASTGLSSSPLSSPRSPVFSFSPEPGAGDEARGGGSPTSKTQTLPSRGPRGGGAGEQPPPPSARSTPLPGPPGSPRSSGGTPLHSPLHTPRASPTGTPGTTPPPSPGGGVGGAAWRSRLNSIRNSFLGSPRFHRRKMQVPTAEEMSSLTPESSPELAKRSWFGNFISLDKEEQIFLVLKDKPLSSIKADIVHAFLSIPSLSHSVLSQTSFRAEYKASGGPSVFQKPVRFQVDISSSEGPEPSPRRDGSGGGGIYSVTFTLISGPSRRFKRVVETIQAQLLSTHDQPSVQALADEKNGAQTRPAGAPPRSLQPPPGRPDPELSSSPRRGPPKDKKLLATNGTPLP
Chain of AKT1 (human), P31749 [S473D] (P31749 whole entry S473D, looked up): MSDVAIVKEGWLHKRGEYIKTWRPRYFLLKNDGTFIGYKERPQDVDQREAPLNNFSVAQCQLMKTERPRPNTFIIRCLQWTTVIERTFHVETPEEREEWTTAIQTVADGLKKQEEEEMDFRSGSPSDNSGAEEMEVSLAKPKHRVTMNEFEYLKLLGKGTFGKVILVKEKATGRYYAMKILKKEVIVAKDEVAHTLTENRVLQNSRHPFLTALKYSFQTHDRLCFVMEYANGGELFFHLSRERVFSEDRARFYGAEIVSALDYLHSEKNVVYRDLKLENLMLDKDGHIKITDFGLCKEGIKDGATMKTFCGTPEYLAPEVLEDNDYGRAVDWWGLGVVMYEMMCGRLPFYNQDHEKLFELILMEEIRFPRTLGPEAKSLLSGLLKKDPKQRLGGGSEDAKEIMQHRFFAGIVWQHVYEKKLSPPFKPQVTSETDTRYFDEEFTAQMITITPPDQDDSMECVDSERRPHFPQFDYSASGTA

residual activity ([1]; compound 10.0 µM): 93%
residual activity ([1]; compound 100.0 µM): 94%
residual activity ([1]; compound 1000.0 µM): 103%
residual activity (AURKA (human); compound 10.0 µM): 117%
residual activity (AURKA (human); compound 100.0 µM): 120%
residual activity (AURKA (human); compound 1000.0 µM): 114%
residual activity (BRSK1 (human); compound 100.0 µM): 93%
residual activity (BRSK1 (human); compound 1000.0 µM): 91%
residual activity (BRSK2 (human); compound 10.0 µM): 91%
residual activity (BRSK2 (human); compound 100.0 µM): 99%
residual activity (BRSK2 (human); compound 1000.0 µM): 108%
residual activity (BTK (human); compound 1000.0 µM): 135%
residual activity (CSK (human); compound 10.0 µM): 87%
residual activity (CSK (human); compound 100.0 µM): 82%
residual activity (CSK (human); compound 1000.0 µM): 86%
residual activity (CSNK1D (human); compound 10.0 µM): 88%
residual activity (CSNK1D (human); compound 100.0 µM): 94%
residual activity (CSNK1D (human); compound 1000.0 µM): 105%
residual activity (EEF2K (human); compound 100.0 µM): 106%
residual activity (EEF2K (human); compound 1000.0 µM): 111%
residual activity (EPHA4 (human); compound 10.0 µM): 98%
residual activity (EPHA4 (human); compound 100.0 µM): 105%
residual activity (EPHA4 (human); compound 1000.0 µM): 119%
residual activity (ERBB4 (human); compound 10.0 µM): 110%
residual activity (ERBB4 (human); compound 1000.0 µM): 108%
residual activity (FGFR1 (human); compound 10.0 µM): 85%
residual activity (GSK3B (human); compound 10.0 µM): 92%
residual activity (GSK3B (human); compound 1000.0 µM): 108%
residual activity (HIPK1 (human); compound 100.0 µM): 95%
residual activity (HIPK3 (human); compound 10.0 µM): 81%
residual activity (HIPK3 (human); compound 100.0 µM): 94%
residual activity (HIPK3 (human); compound 1000.0 µM): 86%
residual activity (IKBKB (human); compound 10.0 µM): 84%
residual activity (IKBKB (human); compound 100.0 µM): 91%
residual activity (IKBKB (human); compound 1000.0 µM): 85%
residual activity (MAP2K2 (human); compound 10.0 µM): 105%
residual activity (MAP2K2 (human); compound 100.0 µM): 101%
residual activity (MAP2K6 (human); compound 10.0 µM): 92%
residual activity (MAP2K6 (human); compound 100.0 µM): 88%
residual activity (MAP3K1 (human); compound 100.0 µM): 95%
residual activity (MAP3K5 (human); compound 10.0 µM): 93%
residual activity (MAP3K5 (human); compound 100.0 µM): 88%
residual activity (MAP3K5 (human); compound 1000.0 µM): 105%
residual activity (MAPK1 (human); compound 10.0 µM): 85%
residual activity (MAPK1 (human); compound 1000.0 µM): 105%
residual activity (MAPK3 (human); compound 10.0 µM): 95%
residual activity (MAPK3 (human); compound 100.0 µM): 99%
residual activity (MAPK3 (human); compound 1000.0 µM): 100%
residual activity (MAPK8 (human); compound 10.0 µM): 99%
residual activity (MAPK8 (human); compound 100.0 µM): 92%
residual activity (MAPK8 (human); compound 1000.0 µM): 109%
residual activity (MAPK9 (human); compound 10.0 µM): 90%
residual activity (MAPK9 (human); compound 100.0 µM): 94%
residual activity (MAPK9 (human); compound 1000.0 µM): 101%
residual activity (MAPKAPK3 (human); compound 10.0 µM): 87%
residual activity (MAPKAPK3 (human); compound 100.0 µM): 97%
residual activity (MKNK2 (human); compound 10.0 µM): 101%
residual activity (MKNK2 (human); compound 100.0 µM): 107%
residual activity (MKNK2 (human); compound 1000.0 µM): 110%
residual activity (NEK6 (human); compound 10.0 µM): 103%
residual activity ([2]; compound 10.0 µM): 101%
residual activity ([2]; compound 100.0 µM): 104%
residual activity ([2]; compound 1000.0 µM): 86%
residual activity (PAK7 (human); compound 10.0 µM): 87%
residual activity (PAK7 (human); compound 100.0 µM): 125%
residual activity (PAK7 (human); compound 1000.0 µM): 93%
residual activity (PLK1 (human); compound 10.0 µM): 94%
residual activity (PLK1 (human); compound 100.0 µM): 100%
residual activity (PLK1 (human); compound 1000.0 µM): 91%
residual activity (RPS6KA3 KD1 KD2 (human); compound 1000.0 µM): 117%
residual activity (RPS6KA5 KD1 KD2 (human); compound 10.0 µM): 107%
residual activity (RPS6KA5 KD1 KD2 (human); compound 100.0 µM): 105%
residual activity (SRPK1 (human); compound 10.0 µM): 91%
residual activity (SRPK1 (human); compound 100.0 µM): 101%
residual activity (SRPK1 (human); compound 1000.0 µM): 103%
residual activity ([3]; compound 10.0 µM): 93%
residual activity ([3]; compound 100.0 µM): 97%
residual activity ([3]; compound 1000.0 µM): 100%
residual activity (TBK1 (human); compound 10.0 µM): 89%
residual activity (TBK1 (human); compound 100.0 µM): 100%
SMILES: COC(=O)/C=C/C(=O)OC
residual activity (MAPK15 (human); compound 10.0 µM): 89%
residual activity (MAPK15 (human); compound 100.0 µM): 100%
residual activity (MAPK15 (human); compound 1000.0 µM): 96%

residual activity ([1]; compound 1.0 µM): 93%
residual activity ([1]; compound 10.0 µM): 97%
residual activity (AURKA (human); compound 1.0 µM): 105%
residual activity (AURKA (human); compound 10.0 µM): 81%
residual activity (BRSK1 (human); compound 1.0 µM): 85%
residual activity (BRSK1 (human); compound 10.0 µM): 69%
residual activity (BRSK2 (human); compound 1.0 µM): 88%
residual activity (BRSK2 (human); compound 10.0 µM): 51%
residual activity (BTK (human); compound 1.0 µM): 115%
residual activity (CSK (human); compound 1.0 µM): 102%
residual activity (CSK (human); compound 10.0 µM): 101%
residual activity (CSNK1D (human); compound 1.0 µM): 95%
residual activity (CSNK1D (human); compound 10.0 µM): 67%
residual activity (EEF2K (human); compound 1.0 µM): 103%
residual activity (EEF2K (human); compound 10.0 µM): 107%
residual activity (EPHA4 (human); compound 1.0 µM): 86%
residual activity (EPHA4 (human); compound 10.0 µM): 98%
residual activity (ERBB4 (human); compound 1.0 µM): 74%
residual activity (ERBB4 (human); compound 10.0 µM): 65%
residual activity (FGFR1 (human); compound 1.0 µM): 97%
residual activity (FGFR1 (human); compound 10.0 µM): 104%
residual activity (GSK3B (human); compound 1.0 µM): 73%
residual activity (GSK3B (human); compound 10.0 µM): 43%
residual activity (HIPK1 (human); compound 1.0 µM): 92%
residual activity (HIPK1 (human); compound 10.0 µM): 49%
residual activity (HIPK3 (human); compound 1.0 µM): 101%
residual activity (IKBKB (human); compound 1.0 µM): 97%
residual activity (IKBKB (human); compound 10.0 µM): 89%
residual activity (MAP2K2 (human); compound 1.0 µM): 118%
residual activity (MAP2K2 (human); compound 10.0 µM): 98%
residual activity (MAP2K6 (human); compound 1.0 µM): 71%
residual activity (MAP2K6 (human); compound 10.0 µM): 31%
residual activity (MAP3K1 (human); compound 1.0 µM): 90%
residual activity (MAP3K1 (human); compound 10.0 µM): 109%
residual activity (MAP3K5 (human); compound 1.0 µM): 66%
residual activity (MAP3K5 (human); compound 10.0 µM): 13%
residual activity (MAPK1 (human); compound 1.0 µM): 95%
residual activity (MAPK1 (human); compound 10.0 µM): 55%
residual activity (MAPK3 (human); compound 1.0 µM): 79%
residual activity (MAPK3 (human); compound 10.0 µM): 49%
residual activity (MAPK8 (human); compound 1.0 µM): 83%
residual activity (MAPK8 (human); compound 10.0 µM): 47%
residual activity (MAPK9 (human); compound 1.0 µM): 108%
residual activity (MAPK9 (human); compound 10.0 µM): 84%
residual activity (MAPKAPK3 (human); compound 1.0 µM): 108%
residual activity (MAPKAPK3 (human); compound 10.0 µM): 124%
residual activity (MKNK2 (human); compound 1.0 µM): 58%
residual activity (MKNK2 (human); compound 10.0 µM): 22%
residual activity (NEK6 (human); compound 1.0 µM): 112%
residual activity (NEK6 (human); compound 10.0 µM): 90%
residual activity ([2]; compound 1.0 µM): 89%
residual activity ([2]; compound 10.0 µM): 88%
residual activity (PAK7 (human); compound 1.0 µM): 94%
residual activity (PAK7 (human); compound 10.0 µM): 79%
residual activity (PLK1 (human); compound 1.0 µM): 78%
residual activity (PLK1 (human); compound 10.0 µM): 40%
residual activity (RPS6KA3 KD1 KD2 (human); compound 1.0 µM): 77%
residual activity (RPS6KA3 KD1 KD2 (human); compound 10.0 µM): 25%
residual activity (RPS6KA5 KD1 KD2 (human); compound 1.0 µM): 85%
residual activity (RPS6KA5 KD1 KD2 (human); compound 10.0 µM): 65%
residual activity (SRPK1 (human); compound 1.0 µM): 84%
residual activity (SRPK1 (human); compound 10.0 µM): 69%
residual activity ([3]; compound 1.0 µM): 88%
residual activity ([3]; compound 10.0 µM): 92%
residual activity (TBK1 (human); compound 10.0 µM): 26%
SMILES: COc1cc(C(=O)N2CCOCC2)c(F)cc1Nc1ncc(C(F)(F)F)c(NC2CC2)n1
residual activity (MAPK15 (human); compound 1.0 µM): 81%
residual activity (MAPK15 (human); compound 10.0 µM): 28%
